Entries after “also recorded” stand apart in the source; their conditions may differ.
Assays:
A. caccae_lah [1] = experiment: In vitro fermentation in PY broth, monoculture butyrate production (HPLC-UV-Vis); type: cell-based, Anaerostipes caccae; conditions: for lactate or acetate in the media at 48 h: A. caccae_lah monoculture, Nutramigen plus 40 mM lactate+33 mM acetate; for butyrate production by A. caccae_lah: monoculture, PY broth supplemented with 10 mg/ml carbohydrates, 48 h
Procedure: (§1) This method of preculture is used for all future in vitro fermentation experiments. Then 10 μl of preculture was transferred into 7 mL minimal peptone yeast (PY) broth alone or supplemented with 10 mg/ml of glucose, sucrose, lactose, cellobiose, or potato starch. All of these variations of PY were pre-reduced anaerobically prepared by Anaerobe Systems. Growth and butyrate production were measured after 48 h. […] Butyrate in solution is quantified by HPLC-UV-Vis as described in reference 61 and 62. […] These simple sugars are similar to those found in infant formula. […] These are the same formulas consumed by the healthy (Enfamil®) and CMA (Nutramigen®) infant donors and are also consumed by all mice colonized with these respective microbiomes. […] All groups were analyzed by one way ANOVA. *P<0.05, **P<0.01, ***P<0.001, ****P<0.0001 versus PY.
(§2) Other groups have shown that primary degraders, namely Bacteroides species, break down complex fibers and produce metabolites lactate and acetate which Clostridia species can then consume to produce butyrate (59). […] Growth and butyrate production were measured after 48 h. […] All groups were analyzed by one way ANOVA. *P<0.05, **P<0.01, ***P<0.001, ****P<0.0001 versus PY alone.

A. caccae_lah [2] = experiment: In vitro fermentation in PY broth, monoculture growth (OD600); type: cell-based, Anaerostipes caccae; conditions: 48 h; for Growth of A. caccae_lah / Growth of A. caccae_lah (OD600): monoculture; for Growth of A. caccae_lah: PY broth supplemented with 33 mM acetate and/or 40 mM lactate; for Growth of A. caccae_lah (OD600): PY broth supplemented with 10 mg/ml carbohydrates
Procedure: as §1, §2

A. caccae_lah [3] = experiment: Antibiotic susceptibility by growth inhibition around antibiotic discs; type: cell-based, Anaerostipes caccae; conditions: discs 10 μg ampicillin, 30 μg tetracycline; BHI agar, 37° C. anaerobic, six days
Procedure: Plates are incubated at 37° C. in anaerobic conditions for six days.

BLG-specific IgG1 = experiment: Serum BLG-specific IgG1 ELISA after challenge; type: in vivo, mouse; conditions: A. caccae monocolonized vs CMA colonized mice
Description: (§3) Food allergen sensitization and challenge. Protocols were adapted from reference 7. All mice were weaned onto a plant-based mouse chow (Purina Lab Diet® 5K67) at 3 weeks of age. GF mice received autoclaved sterile water. For mice colonized with feces from infant donors, or monocolonized with A. caccae, the drinking water was replaced by formula four hours prior to colonization. Mice colonized with healthy feces or A. caccae received Enfamil®; CMA colonized mice received Nutramigen® (both from Mead Johnson). On day 0, one week post weaning (GF) or colonization (healthy/A. caccae/CMA), all mice were fasted for 4 hours and then given a gavage of 200 mM sodium bicarbonate. 30 minutes later, mice were given 20 mg BLG (Sigma) plus 10 μg CT (List Biologicals). This protocol was repeated weekly for 5 weeks. For formula-fed mice, formula was replaced by sterile water for the week after the last sensitization. Prior to challenge on day 42, mice were fasted for 4 hours and given sodium bicarbonate by gavage. Two doses of 100 mg BLG each were then administered via intragastric gavage 30 minutes apart. Core body temperature was measured in a blinded fashion prior to allergen challenge and every 5 minutes after the first challenge until at least 30 minutes after the second challenge using a rectal probe (PhysiTemp). Serum was collected 1 hour after the second challenge to measure mMCPT-1 levels.

mMCPT-1 = experiment: Serum mMCPT-1 ELISA 1 hour after second challenge; type: in vivo, mouse; conditions: A. caccae monocolonized compared to CMA colonized mice
Description: as §3

IL-13 = experiment: Splenocyte cytokine ELISA after BLG stimulation (IL-13); type: cell-based, mouse; conditions: sacrificed 24 h post challenge, stimulated 72 h with BLG; A. caccae vs CMA colonized
Procedure: (§4) For cytokine analysis spleens were harvested 24 h post challenge from A. caccae or CMA colonized mice sensitized with BLG+CT for 5 weeks. Splenocytes were stimulated at a concentration of 2×10^6 cells/ml at 37° C., 10% CO2 with 10 mg/ml BLG (Sigma) in cDMEM (with 4% FCS (HyClone), 10 mM HEPES (Gibco), 100 U/ml Penicillin/Streptomycin (Gibco) and 55 μM 2-mercaptoethanol (Gibco). Cytokine concentrations in 72 hr culture supernatants were determined by ELISA for IL-13 and IL-4 (both from Invitrogen).

[4] = tested on: BLG plus CT sensitized mice, anaphylactic response to BLG challenge; type: in vivo, C3H/HeN mice
BLG-specific IgE = experiment: Serum BLG-specific IgE ELISA after challenge; type: in vivo, mouse; conditions: A. caccae monocolonized vs CMA colonized mice
Description: as §3

IL-4 = experiment: Splenocyte cytokine ELISA after BLG stimulation (IL-4); type: cell-based, mouse; conditions: sacrificed 24 h post challenge, stimulated 72 h with BLG; A. caccae vs CMA colonized
Procedure: as §4

[5] = tested on: Ror2, Fbp1, Tgfbr3, Acot12 and Me1 in ileal IECs; experiment: qPCR gene expression in ileal IECs; type: in vivo, mouse; conditions: A. caccae monocolonized compared to GF or CMA-colonized mice
Procedure: Epithelial cell isolation. As in sensitization experiments, mice were weaned at 3 weeks of age and placed on infant formula prior to colonization. Seven days after colonization, mice were euthanized and ileum was removed. For IEC isolation, tissues were cleaned and inverted as described in ref (43). IECs were collected by inflating inverted tissue in Cell Recovery Solution (Corning) every 5 minutes for 30 minutes. IEC samples were lysed in TRIZol (ThermoFisher) and RNA was extracted with PureLink RNA Mini Kit (Ambion) plus on-column DNAse treatment (PureLink DNAse Set, Ambion).
qPCR. Gene expression was measured by qPCR as described in reference 7. In brief, cDNA was prepared from RNA using the iScript cDNA Synthesis kit (BioRad). Gene expression was measured with PowerUp SYBR green master mix (Applied Biosystems) according to the manufacturer's instructions. Primers are listed in Supplementary Table 7 (20, 50-54). Expression of genes of interest was normalized to Hprt. Relative expression was measured using ΔΔCt centered around the geometric mean; GF mice were used as a reference.

With `CC(=O)O` [acetate] the “lactate or acetate in the media at 48 h” value (A. caccae_lah [1]) was “no detectable” and the “Growth of A. caccae_lah” value (A. caccae_lah [2]) was “significant growth”.

For `CC1(C)S[C@@H]2[C@H](NC(=O)[C@H](N)c3ccccc3)C(=O)N2[C@H]1C(=O)O` [ampicillin], the “antibiotic susceptibility of A. caccae_lah (zone of clearance)” value (A. caccae_lah [3]) was “highly susceptible”.

`O=C[C@H](O)[C@@H](O)[C@H](O[C@@H]1O[C@H](CO)[C@@H](O)[C@H](O)[C@H]1O)[C@H](O)CO` [cellobiose] was tested, and the “butyrate production by A. caccae_lah” value (A. caccae_lah [1]) was “not able to produce significant butyrate”.

`CC(O)C(=O)O` (centres unmarked) [lactate] was tested, and the “lactate or acetate in the media at 48 h” value (A. caccae_lah [1]) was “no detectable” and the “Growth of A. caccae_lah” value (A. caccae_lah [2]) was “significant growth”.

With `OC[C@H]1O[C@@H](O[C@H]2[C@H](O)[C@@H](O)C(O)O[C@@H]2CO)[C@H](O)[C@@H](O)[C@H]1O` (some centres unmarked) [lactose] the “butyrate production by A. caccae_lah” value (A. caccae_lah [1]) was “produced the most butyrate”, the “fermentation by A. caccae_lah in monoculture” value (A. caccae_lah [2]; minimal PY broth supplemented with 10 mg/ml carbohydrates) was “can ferment” and the “Growth of A. caccae_lah (OD600)” value (A. caccae_lah [2]) was “grew abundantly”.

`OC[C@H]1O[C@@](CO)(O[C@H]2O[C@H](CO)[C@@H](O)[C@H](O)[C@H]2O)[C@@H](O)[C@@H]1O` [sucrose] was tested, and the “butyrate production by A. caccae_lah” value (A. caccae_lah [1]) was “produced the most butyrate” and the “Growth of A. caccae_lah (OD600)” value (A. caccae_lah [2]) was “grew abundantly”.

Anaerostipes caccae [A. caccae] was tested, and the “serum BLG-specific IgG1” value (BLG-specific IgG1) was “reduced”, the “serum concentrations of mMCPT-1” value (mMCPT-1) was “significantly reduced” and the “IL-13 in culture supernatants of splenocytes” value (IL-13) was “reduced”. For the same molecule, the “changes in core body temperature after BLG challenge” value ([4]; A. caccae monocolonized compared to CMA colonized mice) was “significantly reduced”, the “anaphylactic response to BLG challenge” value ([4]; BLG plus CT sensitized A. caccae monocolonized mice) was “protected against an anaphylactic response to BLG challenge; also recorded: protects against an allergic response to food” and the “serum BLG-specific IgE” value (BLG-specific IgE) was “reduced”. The “IL-4 in culture supernatants of splenocytes” value (IL-4) was “reduced”, the “Fbp1 gene expression in ileal IECs (qPCR)” value [5] was “significantly upregulated” and the “Tgfbr3 gene expression in ileal IECs (qPCR)” value [5] was “significantly upregulated”.
